From patent EP0953355A1, “REMEDY FOR AUTOIMMUNE DISEASES” (Sankyo Company, Limited, priority 1996, dated 1997) come the findings set out here.

The subject of one data set is Lewis rats. In words: Inhibitory effect on bone destruction induced by adjuvant arthritis. The following applies: for Bone Destruction Score (points): right hind paw, day 21, maximum score 8, groups of 5; for Bone Destruction Inhibition Rate (%): versus control group; for bone destruction compared with the control group / inhibition of bone destruction as compared with the control group: Wilcoxon test. It counts as in vivo. As for the experimental part:
The inhibitory effect was determined in a similar manner to that of Winder, et al. (Arthritis Rheum., Vol. 12, p. 472, 1969). Using Lewis rats (females, age 8-10 weeks, body weights: 160-200 g, Japan Charles River) in groups of 5 each, adjuvant (heat-killed Mycobacterium butyricum)was injected intradermally into the right hind paw of each rat at 100 µg/0.05 ml/paw to induce arthritis. The rats were orally administered troglitazone at 0.2%, pioglitazone at 0.05% and BRL-49653 at 0.005%, respectively, by mixing in powdered feed until day 20 taking the day of injection of adjuvant to be day 0. Rats in a control group were given powdered feed only during the same period. The rats were sacrificed on day 21. After excising the right hind paw (the injected paw), soft X-rays were taken of each paw to observe and score the state of bone destruction. Bone destruction was scored by evaluating into 5 ranks consisting of 0, 1, 2, 3 and 4, assigning 0 points in the absence of bone destruction (normal) and increasing scores depending on the state of joint destruction, bone destruction, deformation and osteophyte formation. The worst state of such bone disorders was assigned a score of 4. The bone disorders were scored at two locations, the calcaneus and the location extending from the tarsal bones to the metatarsal bones. Thus, the score for each animal was determined by calculating the total score for the two locations and the maximum score was 8 points.
The inhibitory effect was determined according to the methods of Winder, et al. (Arthritis Rheum., Vol. 12, p. 472, 1969). Using Lewis rats (females, age 8-10 weeks, body weights: 160 to 200 g, Japan Charles River) in groups of 5 each, adjuvant (heat-killed Mycobacterium butyricum)was injected intradermally into the sole of the right hind paw of each rat at 100 µg/0.05 ml/paw to induce arthritis. The rats were orally administered Compound A at 0.1% and Compound B at 0.1%, respectively, by mixing in powdered feed until day 20 taking the day of injection of adjuvant to be day 0. Rats in a control group were given powdered feed only during the same period. The rats were sacrificed on day 21. After excising the right hind paw (the injected paw), soft X-rays were taken of each paw to observe and score the state of bone destruction. Bone destruction was scored by evaluating into 5 ranks consisting of 0, 1, 2, 3 and 4, assigning 0 points in the absence of bone destruction (normal) and increasing scores depending on the state of joint destruction, bone destruction, deformation and osteophyte formation. The worst state of bone destruction was assigned a score of 4. Bone destruction was scored at two locations, the calcaneus and the location extending from the tarsal bones to the metatarsal bones. Thus, the score for each animal was determined by calculating the total score for the two locations and the maximum score was 8 points.

The next data set deals with islet β cells. In words: Inhibitory effect on lymphocyte invasion (streptozotocin-induced autoimmunity to islet β cells). The following applies: for Degree of lymphocyte invasion 0 to 40% / Degree of lymphocyte invasion 40 to 60%: percentage of mice within this range, oral, streptozotocin 40 mg/kg i.p. for 5 days; for islet cells invaded by lymphocytes in all mice: 0.1% in feed. The class given is in vivo, DBA/2 mice. On the procedure:
Streptozotocin was administered intraperitoneally for 5 days to 8-week-old DBA/2 mice at 40 mg/kg to induce autoimmunity of islet β cells. […] Mice in the control group were given only powdered feed during the same period.
Blood samples were collected from the tail vein before the start, during and on the final day of streptozotocin administration. The blood samples were centrifuged to obtain plasma, and the glucose levels of the obtained plasma were measured with a glucose analyzer (Sino-Test Co., Ltd.). In the figure, glucose levels (mg/dl) are plotted on the vertical axis, while time (days) is plotted on the horizontal axis. [drawing]
The mice used in the experiment were sacrificed following measurement of glucose levels on the final day of pioglitazone administration. The pancreas of each animal was excised and fixed with bouian solution. Thin tissue slices were prepared from the pancreas and the degree of lymphocyte invasion into islet cells was observed by a light microscope. […] Moreover, the degree of lymphocyte invasion was classified as either 0 to 40% or 40 to 60%. The number of mice classified within each range was illustrated in Table 3 as a percentage (%) relative to the total number of mice in the pioglitazone administration group and control groups.
Streptozotocin was administered intraperitoneally for 5 days to 8-week-old DBA/2 mice at 40 mg/kg to induce autoimmunity of islet β cells. […] Control mice were given only powdered feed during the same period.
Blood samples were collected from the tail vein before the start, during and on the final day of streptozotocin administration. The blood samples were centrifuged to obtain plasma, and the glucose levels of the obtained plasma were measured with a glucose analyzer (Sinotest). In the figure, glucose levels (mg/dl) are plotted on the vertical axis, while time (days) is plotted on the horizontal axis. [drawing]
The mice used in the experiment were sacrificed following measurement of glucose levels on the final day of drug administration. The pancreas of each animal was excised and fixed with bouian solution. Thin tissue slices were prepared from the pancreas and the degree of lymphocyte invasion into islet cells was observed by a light microscope. […] Moreover, the degree of lymphocyte invasion of each mouse was classified as either 0 to 40% or 40 to 60%.

A further data set relates to ddY mice. It counts as in vivo. The following applies: 300 mg/kg oral, three ddY mice (males), observed for 5 days. As for the experimental part: Acute toxicity was determined in accordance with conventional methods. […] 2, 3,4 and 10, all acute toxicities of these compounds were determined to be 300 mg/kg and more after oral administration of them.
Where [1] appears, read: Example 5, 0.1% in powdered feed until day 20.
Setting [2] is: 0.2% in F2 powdered feed (236 mg/kg/day), 38 days.
Setting [3] is: Example 2, in powdered feed until day 20: troglitazone 0.2%, pioglitazone 0.05%, BRL-49653 0.005%.
[4] abbreviates: 0.2% in F2 powdered feed (240 mg/kg/day), 38 days.
The mark [5] stands for this setting: Example 4, from Fig. 3 (plasma glucose levels) and Table 4.
Where [6] appears, read: 0.1% in F2 powdered feed (BRL-49653: 125 mg/kg/day, Compound A: 94 mg/kg/day), 31 days.

In the case of `COc1ccc2nc(COc3ccc(CC4SC(=O)NC4=O)cc3)n(C)c2c1` (centres unmarked) [Compound B, 5-[4-(6-methoxy-1-methylbenzimidazol-2-ylmethoxy)benzyl]thiazolidine-2,4-dione], in the data set on Lewis rats (setting [1]), the “Bone Destruction Score (points)” value is listed as 6.6 ± 0.8 points and the “Bone Destruction Inhibition Rate (%)” value amounted to 17.5%. The “bone destruction compared with the control group” value with Lewis rats (Example 5) was “tended to be inhibited”.
For `CCc1ccc(CCOc2ccc(CC3SC(=O)NC3=O)cc2)nc1` (centres unmarked) [Pioglitazone, 5-{4-[2-(5-ethyl-2-pyridyl)ethoxy]benzyl}-2,4-thiazolidinedione], the “degree of lymphocyte invasion into islet cells in all mice” value in the data set on islet β cells (Example 3, 0.2% in feed (236 mg/kg/day), 38 days) is recorded as at most 40%. Moreover, in the data set on islet β cells (Example 3, on the basis of Fig. 2 (plasma glucose levels) and Table 3), the “onset of autoimmune disease” value was “suppresses the onset of autoimmune disease”. For the same molecule, in the data set on islet β cells (setting [2]), the “Degree of lymphocyte invasion 0 to 40%” value was determined as 100% and the “Degree of lymphocyte invasion 40 to 60%” value turned out to be 0%. Also, the “inhibition of bone destruction as compared with the control group” value (“inhibition … compared with the control group” for short) with Lewis rats (Example 2) is reported as “exhibited inhibition of bone destruction”. For the same molecule, in the data set on Lewis rats (setting [3]), the “Bone Destruction Score (points)” value is 4.4 ± 1.0 points and the “Bone Destruction Inhibition Rate (%)” value worked out at 40.5%.
With `Cc1c(C)c2c(c(C)c1O)CCC(C)(COc1ccc(CC3SC(=O)NC3=O)cc1)O2` (centres unmarked) [Troglitazone, 5-[4-(6-hydroxy-2,5,7,8-tetramethylchroman-2-ylmethoxy)benzyl]thiazolidine-2,4-dione], the “degree of lymphocyte invasion into islet cells in all mice” value in the data set on islet β cells (Example 1, 0.2% in feed (240 mg/kg/day), 38 days) is reported as at most 40%. Besides, the “onset of autoimmune disease” value in the data set on islet β cells (Example 1, on the basis of Fig. 1 (plasma glucose levels) and Table 1) is given as “suppresses the onset of autoimmune disease”. Moreover, in the data set on islet β cells (setting [4]), the “Degree of lymphocyte invasion 0 to 40%” value was determined as 100% and the “Degree of lymphocyte invasion 40 to 60%” value stood at 0%. Moreover, the survival entry in the data set with ddY mice is on record as “All animals survived”. The “inhibition … compared with the control group” value in the data set with Lewis rats (Example 2) was “significant inhibition of bone destruction”. Moreover, in the data set with Lewis rats (setting [3]), the “Bone Destruction Score (points)” value came to 5.4 ± 0.2 points and the “Bone Destruction Inhibition Rate (%)” value is 27.0%.
As for `CC(=NOCCOc1ccc(CC2SC(=O)NC2=O)cc1)c1ccc(-c2ccccn2)cc1` (centres unmarked) [Compound A, 5-[4-[2-[[[1-[4-(2-pyridyl)phenyl]ethylidene]amino]oxy]ethoxy]benzyl]thiazolidine-2,4-dione], the “islet cells invaded by lymphocytes in all mice” value with islet β cells (Example 4, 31 days) is “less than 40%”. For the same molecule, in the data set with islet β cells (setting [5]), the “onset of autoimmune disease” value was “suppresses the onset of autoimmune disease”. Also, in the data set with islet β cells (setting [6]), the “Degree of lymphocyte invasion 0 to 40%” value is 100% and the “Degree of lymphocyte invasion 40 to 60%” value is listed as 0%. For the same molecule, in the data set on Lewis rats (setting [1]), the “Bone Destruction Score (points)” value was determined as 6.6 ± 0.7 points and the “Bone Destruction Inhibition Rate (%)” value is 17.5%. Besides, the “bone destruction compared with the control group” value in the data set on Lewis rats (Example 5) is given as “tended to be inhibited”.
As for `CN(CCOc1ccc(CC2SC(=O)NC2=O)cc1)c1ccccn1` (centres unmarked) [BRL-49653, 5-{4-[2-(N-methyl-N-(2-pyridyl)amino)ethoxy]benzyl}thiazolidine-2,4-dione], the “islet cells invaded by lymphocytes in all mice” value with islet β cells (Example 4, 31 days) was “less than 40%”. Besides, the “onset of autoimmune disease” value with islet β cells (setting [5]) was “suppresses the onset of autoimmune disease”. Moreover, in the data set on islet β cells (setting [6]), the “Degree of lymphocyte invasion 0 to 40%” value was determined as 100% and the “Degree of lymphocyte invasion 40 to 60%” value worked out at 0%. The “inhibition … compared with the control group” value with Lewis rats (Example 2) is reported as “exhibited inhibition of bone destruction”. In the data set with Lewis rats (setting [3]), the “Bone Destruction Score (points)” value came out at 4.8 ± 1.2 points and the “Bone Destruction Inhibition Rate (%)” value is listed as 35.1%.
